Experimental data taken from patent US20060069132A1, “Azolecarboxamide herbicides” (priority 2004, published 2006).

How the values were obtained:
[1] = test system: barnyardgrass; experiment: Test B pre-/postemergence herbicide test; assay type: in vivo, Echinochloa crus-galli; details: for Plant response rating (0 to 100 scale), Barnyardgrass: 0 is no effect, preemergence
Outline: (§1)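 Herbicidal effect was judged by eye on a 0–100 scale after plants stood 13 to 15 days in the greenhouse following pre- or postemergence treatment with surfactant-containing formulations.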

[2] = test system: Surinam grass; experiment: Test B pre-/postemergence herbicide test; assay type: in vivo, Urochloa decumbens; details: for Plant response rating (0 to 100 scale), Surinam Grass: 0 is no effect, 100 is complete control, preemergence; for Surinam Grass plant response rating: scale 0 (no effect) to 100 (complete control)
Outline: (§2)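 Greenhouse pot assay with simultaneous preemergence (treated seed) and postemergence (2–18 cm seedlings) applications of surfactant-containing, non-phytotoxic solvent formulations. Response scored visually 13–15 days later on a 0–100 scale, 100 meaning complete control.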

[3] = test system: cocklebur; experiment: Test B pre-/postemergence herbicide test; assay type: in vivo, Xanthium strumarium; details: for Plant response rating (0 to 100 scale), Cocklebur: 0 is no effect, preemergence
Outline: as §1

[4] = test system: corn; experiment: Test B pre-/postemergence herbicide test; assay type: in vivo, Zea mays; details: for Plant response rating (0 to 100 scale), Corn: 0 is no effect, preemergence
Outline: as §2

[5] = test system: large crabgrass; experiment: Test B pre-/postemergence herbicide test; assay type: in vivo, Digitaria sanguinalis; details: for Plant response rating (0 to 100 scale), Crabgrass, Large: 0 is no effect, preemergence
Outline: as §2

[6] = test system: giant foxtail; experiment: Test B pre-/postemergence herbicide test; assay type: in vivo, Setaria faberi; details: for Plant response rating (0 to 100 scale), Foxtail, Giant: 0 is no effect, preemergence
Outline: as §2

[7] = test system: lambsquarters; experiment: Test B pre-/postemergence herbicide test; assay type: in vivo, Chenopodium album; details: for Lambsquarters plant response rating: scale 0 (no effect) to 100 (complete control); for Plant response rating (0 to 100 scale), Lambsquarters: 0 is no effect, 100 is complete control, preemergence
Outline: as §2

[8] = test system: morningglory; experiment: Test B pre-/postemergence herbicide test; assay type: in vivo, Ipomoea coccinea; details: for Plant response rating (0 to 100 scale), Morningglory: 0 is no effect, 100 is complete control, preemergence; for Morningglory plant response rating: scale 0 (no effect) to 100 (complete control)
Outline: as §1

[9] = test system: pigweed; experiment: Test B pre-/postemergence herbicide test; assay type: in vivo, Amaranthus retroflexus; details: for Plant response rating (0 to 100 scale), Pigweed: 0 is no effect, 100 is complete control, preemergence; for Pigweed plant response rating: scale 0 (no effect) to 100 (complete control)
Outline: as §2

[10] = test system: velvetleaf; experiment: Test B pre-/postemergence herbicide test; assay type: in vivo, Abutilon theophrasti; details: for Plant response rating (0 to 100 scale), Velvetleaf: 0 is no effect, 100 is complete control, preemergence; for Velvetleaf plant response rating: scale 0 (no effect) to 100 (complete control)
Outline: as §2

[11] = test system: blackgrass; experiment: Test B postemergence herbicide test; assay type: in vivo, Alopecurus myosuroides
Outline: (§3)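 Treated at 2-leaf (paddy) or 1–4-leaf, 2–18 cm (postemergence); greenhouse 13–15 d; visual score vs control, 0 none to 100 complete control; dash = not tested.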

[12] = test system: wheat; experiment: Test B postemergence herbicide test; assay type: in vivo, Triticum aestivum; design: key to Wheat plant response rating: 0 = no effect, 100 = complete control
Outline: (§4)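 After treating 2-leaf paddy plants or 2–18 cm postemergence plants (1 to 4 leaves) with formulated chemical, researchers kept them in a greenhouse for 13–15 days. Effects were judged visually versus controls: 0 indicates none, 100 total control.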

[13] = test system: wild oat; experiment: Test B postemergence herbicide test; assay type: in vivo, Avena fatua; details: scale 0 (no effect) to 100 (complete control)
Outline: as §4

[14] = test system: rice; experiment: Test B flooded paddy test; assay type: in vivo, Oryza sativa; details: 1000 g ai/ha, scale 0 to 100 (0 no effect, 100 complete control)
Outline: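 Greenhouse test; postemergence application to plants at 1–4 leaves (2–18 cm); paddy species at 2 leaves; evaluated visually vs controls at 13–15 days; scale 0–100 (100 = complete control).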

[15] = test system: small flower umbrella sedge; experiment: Test B flooded paddy test; assay type: in vivo, Cyperus difformis; details: 1000 g ai/ha, scale 0 to 100 (0 no effect, 100 complete control)
Outline: as §3

[16] = test system: ducksalad; experiment: Test B flooded paddy test; assay type: in vivo, Heteranthera limosa; details: 1000 g ai/ha, scale 0 to 100 (0 no effect, 100 complete control)
Outline: as §3

[17] = test system: barnyardgrass; experiment: Test B flooded paddy test; assay type: in vivo, Echinochloa crus-galli; details: 1000 g ai/ha, scale 0 to 100 (0 no effect, 100 complete control)
Outline: as §3

[18] = 125 g ai/ha, 100 is complete control
[19] = 125 g ai/ha, visual rating, scale 0 (no effect) to 100 (complete control), postemergence
[20] = postemergence, 500 g ai/ha, scale 0 to 100, 0 is no effect, 100 is complete control
[21] = 125 g ai/ha, visual rating, postemergence
[22] = 500 g ai/ha, scale 0 to 100, 0 no effect, 100 complete control, preemergence
[23] = Postemergence, 500 g ai/ha, scale 0 (no effect) to 100 (complete control)

CCc1nn(C(C)(C)CC)nc1C(=O)Nc1cc(C(=O)N2CC=CC2)ccc1F [Compound 371]
Plant response rating (0 to 100 scale), Barnyardgrass [1, 18]: 0 | Barnyardgrass plant response rating [1, 19]: 0 | Barnyardgrass plant response rating [1, 20]: 0 | Plant response rating (0 to 100 scale), Surinam Grass ([2]; 125 g ai/ha): 10 | Surinam Grass plant response rating [2, 21]: 0 | Surinam Grass plant response rating ([2]; Postemergence, 500 g ai/ha): 10 | Plant response rating (0 to 100 scale), Cocklebur [3, 18]: 0 | Cocklebur plant response rating [3, 19]: 20 | Cocklebur plant response rating [3, 20]: 30 | Plant response rating (0 to 100 scale), Corn [4, 18]: 0 | Corn plant response rating [4, 19]: 10 | Corn plant response rating [4, 20]: 10 | Plant response rating (0 to 100 scale), Crabgrass, Large [5, 18]: 10 | Crabgrass, Large plant response rating [5, 19]: 0 | Crabgrass, Large plant response rating [5, 20]: 10 | Plant response rating (0 to 100 scale), Foxtail, Giant [6, 18]: 10 | Foxtail, Giant plant response rating [6, 19]: 10 | Foxtail, Giant plant response rating [6, 20]: 20 | Lambsquarters plant response rating [7, 21]: 40 | Lambsquarters plant response rating ([7]; Postemergence, 500 g ai/ha): 70 | Plant response rating (0 to 100 scale), Morningglory ([8]; 125 g ai/ha): 0 | Morningglory plant response rating [8, 21]: 40 | Morningglory plant response rating ([8]; Postemergence, 500 g ai/ha): 70 | Plant response rating (0 to 100 scale), Pigweed ([9]; 125 g ai/ha): 0 | Pigweed plant response rating [9, 21]: 10 | Pigweed plant response rating ([9]; Postemergence, 500 g ai/ha): 30 | Plant response rating (0 to 100 scale), Velvetleaf ([10]; 125 g ai/ha): 0 | Velvetleaf plant response rating [10, 21]: 10 | Velvetleaf plant response rating ([10]; Postemergence, 500 g ai/ha): 20 | Blackgrass plant response rating [11, 19]: 0 | Blackgrass plant response rating [11, 20]: 20 | Wheat plant response rating [12, 19]: 0 | Wheat plant response rating [12, 22]: 0 | Wheat plant response rating [12, 23]: 10 | Oat, Wild plant response rating [13, 21]: 0 | Oat, Wild plant response rating ([13]; Postemergence, 500 g ai/ha): 10 | Rice plant response rating [14]: 40 | Sedge, Umbrella plant response rating [15]: 60 | Ducksalad plant response rating [16]: 90 | Barnyardgrass plant response rating [17]: 30

Cc1nn(C(C)C)nc1C(=O)Nc1cc(C(=O)N2CC=CC2)ccc1F [Compound 402]
Plant response rating (0 to 100 scale), Barnyardgrass [1, 18]: 0 | Barnyardgrass plant response rating [1, 19]: 0 | Barnyardgrass plant response rating [1, 23]: 0 | Plant response rating (0 to 100 scale), Surinam Grass ([2]; 125 g ai/ha): 0 | Surinam Grass plant response rating [2, 21]: 0 | Surinam Grass plant response rating ([2]; Postemergence, 500 g ai/ha): 20 | Plant response rating (0 to 100 scale), Cocklebur [3, 18]: 0 | Cocklebur plant response rating [3, 19]: 0 | Cocklebur plant response rating [3, 23]: 0 | Plant response rating (0 to 100 scale), Corn [4, 18]: 0 | Corn plant response rating [4, 19]: 0 | Corn plant response rating [4, 23]: 0 | Plant response rating (0 to 100 scale), Crabgrass, Large [5, 18]: 0 | Crabgrass, Large plant response rating [5, 19]: 0 | Crabgrass, Large plant response rating [5, 23]: 10 | Plant response rating (0 to 100 scale), Foxtail, Giant [6, 18]: 0 | Foxtail, Giant plant response rating [6, 19]: 0 | Foxtail, Giant plant response rating [6, 23]: 20 | Plant response rating (0 to 100 scale), Lambsquarters ([7]; 125 g ai/ha): 0 | Lambsquarters plant response rating [7, 21]: 30 | Lambsquarters plant response rating ([7]; Postemergence, 500 g ai/ha): 40 | Plant response rating (0 to 100 scale), Morningglory ([8]; 125 g ai/ha): 0 | Morningglory plant response rating [8, 21]: 0 | Morningglory plant response rating ([8]; Postemergence, 500 g ai/ha): 0 | Plant response rating (0 to 100 scale), Pigweed ([9]; 125 g ai/ha): 0 | Pigweed plant response rating [9, 21]: 0 | Pigweed plant response rating ([9]; Postemergence, 500 g ai/ha): 10 | Plant response rating (0 to 100 scale), Velvetleaf ([10]; 125 g ai/ha): 0 | Velvetleaf plant response rating [10, 21]: 20 | Velvetleaf plant response rating ([10]; Postemergence, 500 g ai/ha): 30 | Blackgrass plant response rating [11, 19]: 0 | Blackgrass plant response rating [11, 23]: 0 | Wheat plant response rating [12, 19]: 0 | Wheat plant response rating [12, 22]: 10 | Wheat plant response rating [12, 23]: 0 | Oat, Wild plant response rating [13, 21]: 0 | Oat, Wild plant response rating ([13]; Postemergence, 500 g ai/ha): 0 | Rice plant response rating [14]: 10 | Sedge, Umbrella plant response rating [15]: 70 | Ducksalad plant response rating [16]: 20 | Barnyardgrass plant response rating [17]: 10

C#CCNC(=O)c1ccc(F)c(NC(=O)c2nn(C(C)(C)C)nc2CC)c1 [Compound 389]
Plant response rating (0 to 100 scale), Barnyardgrass [1, 18]: 0 | Barnyardgrass plant response rating [1, 19]: 0 | Barnyardgrass plant response rating [1, 20]: 0 | Plant response rating (0 to 100 scale), Surinam Grass ([2]; 125 g ai/ha): 0 | Surinam Grass plant response rating [2, 21]: 0 | Surinam Grass plant response rating ([2]; Postemergence, 500 g ai/ha): 10 | Plant response rating (0 to 100 scale), Cocklebur [3, 18]: 0 | Cocklebur plant response rating [3, 19]: 0 | Cocklebur plant response rating [3, 20]: 0 | Plant response rating (0 to 100 scale), Corn [4, 18]: 0 | Corn plant response rating [4, 19]: 0 | Corn plant response rating [4, 20]: 0 | Plant response rating (0 to 100 scale), Crabgrass, Large [5, 18]: 0 | Crabgrass, Large plant response rating [5, 19]: 0 | Crabgrass, Large plant response rating [5, 20]: 10 | Plant response rating (0 to 100 scale), Foxtail, Giant [6, 18]: 0 | Foxtail, Giant plant response rating [6, 19]: 0 | Foxtail, Giant plant response rating [6, 20]: 10 | Plant response rating (0 to 100 scale), Lambsquarters ([7]; 125 g ai/ha): 0 | Lambsquarters plant response rating [7, 21]: 10 | Lambsquarters plant response rating ([7]; Postemergence, 500 g ai/ha): 30 | Plant response rating (0 to 100 scale), Morningglory ([8]; 125 g ai/ha): 0 | Morningglory plant response rating [8, 21]: 0 | Morningglory plant response rating ([8]; Postemergence, 500 g ai/ha): 0 | Plant response rating (0 to 100 scale), Pigweed ([9]; 125 g ai/ha): 0 | Pigweed plant response rating [9, 21]: 20 | Pigweed plant response rating ([9]; Postemergence, 500 g ai/ha): 40 | Plant response rating (0 to 100 scale), Velvetleaf ([10]; 125 g ai/ha): 0 | Velvetleaf plant response rating [10, 21]: 0 | Velvetleaf plant response rating ([10]; Postemergence, 500 g ai/ha): 20 | Blackgrass plant response rating [11, 19]: 0 | Blackgrass plant response rating [11, 20]: 10 | Wheat plant response rating [12, 19]: 0 | Wheat plant response rating [12, 22]: 0 | Wheat plant response rating [12, 23]: 0 | Oat, Wild plant response rating [13, 21]: 0 | Oat, Wild plant response rating ([13]; Postemergence, 500 g ai/ha): 0 | Rice plant response rating [14]: 20 | Sedge, Umbrella plant response rating [15]: 30 | Ducksalad plant response rating [16]: 0 | Barnyardgrass plant response rating [17]: 0
